How the values were obtained:
[1] = system: CCDC43; assay: qPCR relative expression (vs cycle 1, day 1, hour 0) in patients' whole blood; type: in vivo, human
Method: (§1) 2.5 ml whole blood from patients was collected in PAXgene™ tubes (BD Biosciences) that contain chemicals to lyse the erythrocytes, stabilize RNA from degradation by RNases and minimize ex vivo changes in gene expression. The samples were incubated at 20° C. to 25° C. for 2 hours and then frozen at −20° C. until purification of total RNA.
(§2) Total RNA was isolated from the whole blood samples stabilized in PAXgene™ buffer using a spin column based technique suitable for whole blood samples (like PAXgene™ Blood miRNA Kit or PAXgene™ Blood RNA Kit from Qiagen) according to the manufacturer's instructions. The purification began with a centrifugation step to pellet nucleic acids in the (PAXgene™ Blood RNA) tube. The resuspended pellet was incubated in buffers, optimized for maintenance of RNA stability together with proteinase K to bring about protein digestion. An additional centrifugation through the PAXgene™ Shredder spin column was carried out to homogenize the cell lysate and remove residual cell debris, and the supernatant of the flow-through fraction was transferred to a fresh microcentrifuge tube. Ethanol was added to adjust binding conditions, and the lysate was applied to a PAXgene™ RNA spin column. During a brief centrifugation, RNA was selectively bound to the PAXgene™ silica membrane as contaminants pass through. Remaining contaminants were removed in several efficient wash steps. Between the first and second wash steps, the membrane was treated with DNase I, as described herein below in 1.3 to remove trace amounts of bound DNA. After the wash steps, RNA was eluted in nuclease free water and heat-denatured.
(§3) The High-Capacity cDNA Reverse Transcription Kit (Applied Biosystems) was used for reverse transcription of total RNA into single stranded cDNA with the aid of random hexamer primers according to the manufacturer's instructions. Briefly, for the reaction mix total RNA was mixed with random primers in excess, 4 mM dNTP Mix, 2.5 U/reaction, reverse transcriptase and nuclease free water. The reverse transcription took place in a thermal cycler under the following conditions: 25° C. for 10 min, 37° C. for 120 min, 85° C. for 5 min, followed by 4° C. for cooling down the reaction. The reverse transcription can be done in principle as well with other reverse transcriptases, primers and temperature protocols. Whenever possible, 250 ng total RNA were reverse transcribed if not available, lower amounts were used.
(§4) Custom TaqMan® Arrays (Applied Biosystems) in Format 16 were designed for the gene expression analysis of biomarkers of the present invention and housekeeping genes as outlined in table 4. These arrays allow for qPCR analysis of 8 samples per card. Of course, all reactions can be done as well by conventional qPCR analysis with specific primers.
(§5) The reaction mix was transferred into the reaction chambers by centrifuging twice for 1 minute each at 330 g and 4° C. After sealing, the microfluidic cards were run on an AB7900HT instrument (Applied Biosystems). The software SDS 2.4 (Applied Biosystems) was employed for instrument control, data acquisition and raw data analysis. The plates were run in Relative Quantification (ΔΔCt) mode, and the following temperature profile was used:
(§6) This analysis was carried out for each patient separately. The first sample (cycle 1, day 1, hour 0) was used as the reference sample. The ‘exprs’ value indicates relative expression levels (fold change values) for individual samples.
(§7) Table 5 contains the median expression level values for treatment day 5 (cycle 1, day 5, hours 0, 2, and 5) at a daily dose of 600 mg or 800 mg Resminostat mesylate salt is given below.

[2] = system: MICALL1; assay: as above; type: in vivo, human
Method: as §1, §2, §3, §4, §5, §6, §7

[3] = system: GAPDH; assay: as above; type: in vivo, human
Method: as §1, §2, §3, §4, §5, §6, §7

[4] = system: ZFP64; assay: Nuclear protein extraction and Western blot, HepG2 cells; type: cell-based, human; details: 5 μM, 24 h, vs 0.1% DMSO
Method: (§8) After isolating nuclear fractions, ZFP64 protein levels were detected by Western Blot analysis. Histone H3 serves as nuclear loading control.
(§9) 4 h upon seeding, HepG2 cells were treated with either 0.1% DMSO or 5 μM resminostat.
(§10) 24 h upon resminostat treatment, cells were washed once with PBS before scraping and harvesting in cold PBS and transferring the cells into pre-chilled 15 ml falcon tubes. […]
(§11) From each nuclear sample 4.4 μg protein (measured via BCA protein assay) were added to the same amount of Tricine buffer (supplemented with B-Mercaptoethanol), heated at 95° C. for 5 min and then placed on ice. […]
(§12) The next day, after washing four times with Washing Buffer, membranes were incubated for 1 h with the corresponding horseradish peroxidase-conjugated anti-rabbit IgG secondary antibody at a dilution of 1/50.000 and anti-Biotin at a dilution of 1/1.000 (diluted in 10 ml 1/10 diluted SuperBlock T20 Blocking Buffer). After washing four times with Washing Buffer, HRP signals were detected using enhanced chemoluminescence and exposed to X-ray films. Subsequently, the films were scanned using the Gel Doc 2000 and the corresponding signals were quantified with the “Quantity One” Software (BioRad).

[5] = system: Histone H3; assay: Nuclear protein extraction and Western blot, HepG2 cells (nuclear loading control); type: cell-based, human; details: 5 μM, 24 h, vs 0.1% DMSO
Method: as §8, §9, §10, §11, §12

[6] = cycle 1, day 5, hour 0, 600 mg dose
[7] = cycle 1, day 5, hour 0, 800 mg dose
[8] = cycle 1, day 5, hour 2, 600 mg dose
[9] = cycle 1, day 5, hour 2, 800 mg dose
[10] = cycle 1, day 5, hour 5, 600 mg dose
[11] = cycle 1, day 5, hour 5, 800 mg dose

Median expression level, MICALL1 [2, 6]: 0.981
Median expression level, MICALL1 [2, 7]: 1.024
Median expression level, MICALL1 [2, 8]: 0.395
Median expression level, MICALL1 [2, 9]: 0.407
Median expression level, MICALL1 [2, 10]: 0.201
Median expression level, MICALL1 [2, 11]: 0.163
SMILES: CN(C)Cc1ccc(S(=O)(=O)n2ccc(/C=C/C(=O)NO)c2)cc1 [resminostat, (E)-3-(1-(4-((dimethylamino)methyl)phenylsulfonyl)-1H-pyrrol-3-yl)-N-hydroxyacrylamide]
Median expression level, CCDC43 [1, 6]: 0.917
Median expression level, CCDC43 [1, 7]: 1.391
Median expression level, CCDC43 [1, 8]: 0.318
Median expression level, CCDC43 [1, 9]: 0.329
Median expression level, CCDC43 [1, 10]: 0.378
Median expression level, CCDC43 [1, 11]: 0.319
Median expression level, GAPDH [3, 6]: 1.092
Median expression level, GAPDH [3, 7]: 1.136
Median expression level, GAPDH [3, 8]: 1.201
Median expression level, GAPDH [3, 9]: 1.362
Median expression level, GAPDH [3, 10]: 1.296
Median expression level, GAPDH [3, 11]: 1.228
ZFP64 nuclear protein levels (Western Blot) [4]: diminished
Histone H3 levels (nuclear loading control) [5]: essentially unaltered
